ChEMBL document CHEMBL3430912, “GSK Tres Cantos Anti-Kinetoplastid Screening (TCAKS) Data”

Legend:
[1] = system: Trypanosoma cruzi; test: GSK_TCAKS: pIC50 Trypanosoma cruzi viability assay using beta-GAL activity. This assay was run at single shot at 5uM compound concentration per well. The biological reagents consisted of NIH-3T3 host cells and trypomastigotes parasitic cells; both cell types were set to a 3.3 * 10^5 cells/mL dilution in assay DMEM by means of a CASY cell counter device using a 60um capillary. 6 uL of the mixture were dispensed per well (about 1 * 10^3 host-cells and 1 * 10^3 parasites) with a Multidrop Combi dispenser. […] In all wells, the percentage of DMSO never exceeded 0.5%. Plates incubated for four days at 37C, 5% CO2. The substrate used for the assay fluorescence intensity (FLINT) readout was resorufin-beta-D-galactopiranoside (Sigma-Aldrich) at 5uM per well. It was diluted in PBS supplemented with the soft detergent Igepal (Fluka).; type: functional, organism-based, Mus musculus; details: Tulahuen, NIH3T3
[2] = system: Trypanosoma cruzi; test: (§1) GSK_TCAKS: pIC50 Trypanosoma cruzi Imaging: Infected Cells. […] Cells were then washed once with PBS before infection. T. cruzi trypomastigotes, collected at days 5 to 8 after infection from LLC-MK2 parasite infected cultures, were allowed to swim out for 4h at 37C from a centrifuged pellet (2,500 rpm/10 min/room temperature). Trypomastigotes were then collected and counted in a CASY Cell Counter. Trypomastigotes, in supplemented DMEM, were added to H9c2 cultures in a multiplicity of infection of 1 and incubated for 18 h. Cells were washed once with PBS before incubation of the infected H9c2 monolayer with trypsin (Life-Technologies) to detach cells from the flask. Cells were counted in a CASY Cell Counter using a 150 um capillary and their density set at 5 * 10^4 cells per mL in supplemented assay DMEM. Infected H9c2 were dispensed into 384-well poly-lysine coated assay plates at 50uL per well using a Multidrop Combi dispenser. After seeding them, the plates were incubated at 37C, 5% CO2 for 72h. Cultures were then fixed and stained by addition of 50 uL of a solution containing 8% formaldehyde and 4 uM DRAQ5 DNA dye (BioStatus, UK) per well. […] Five images were collected per well for reliable statistical analysis. Automated image analysis was performed with a script developed on Acapella High Content Imaging and Analysis Software (PerkinElmer). Output: percentage of infected cells per well as a second infection marker.; type: functional, organism-based, Rattus norvegicus; details: H9c2, 4 h
[3] = system: Trypanosoma cruzi; test: GSK_TCAKS: pIC50 Trypanosoma cruzi Imaging: Amastigotes/Cell. […] Cells were then washed once with PBS before infection. T. cruzi trypomastigotes, collected at days 5 to 8 after infection from LLC-MK2 parasite infected cultures, were allowed to swim out for 4h at 37C from a centrifuged pellet (2,500 rpm/10 min/room temperature). Trypomastigotes were then collected and counted in a CASY Cell Counter. Trypomastigotes, in supplemented DMEM, were added to H9c2 cultures in a multiplicity of infection of 1 and incubated for 18 h. Cells were washed once with PBS before incubation of the infected H9c2 monolayer with trypsin (Life-Technologies) to detach cells from the flask. Cells were counted in a CASY Cell Counter using a 150 um capillary and their density set at 5 * 10^4 cells per mL in supplemented assay DMEM. Infected H9c2 were dispensed into 384-well poly-lysine coated assay plates at 50uL per well using a Multidrop Combi dispenser. After seeding them, the plates were incubated at 37C, 5% CO2 for 72h. Cultures were then fixed and stained by addition of 50 uL of a solution containing 8% formaldehyde and 4 uM DRAQ5 DNA dye (BioStatus, UK) per well. […] Five images were collected per well for reliable statistical analysis. Automated image analysis was performed with a script developed on Acapella High Content Imaging and Analysis Software (PerkinElmer). Output: number of amastigotes per cell as infection level measurement.; type: functional, organism-based, Rattus norvegicus; details: H9c2, 4 h
[4] = system: Trypanosoma cruzi; test: as §1, with “H2C9” for “Trypanosoma cruzi”, “H9c2 Host Cardiomyocytes.” for “Infected Cells.”, “Number” for “percentage”, “H9c2 Host Cardiomyocytes nuclei to determine drug-related cytotoxicity.” for “infected cells per well as a second infection marker.”; type: functional, organism-based, Rattus norvegicus; details: H9c2, 4 h
[5] = system: Leishmania donovani; test: GSK_TCAKS: pIC50 Leishmania donovani viability assay using fluorescence intensity. Assay plates (1536-well) were prepared by adding 30nL per well of compound. For single shot assay, the final compound concentration was 5uM. […] Briefly, eGFP LdBOB axenic amastigotes were harvested, fixed and counted in a CASY cell counter (Roche-Applied Science). A final concentration of 1.5 * 10^5 cells per well were prepared in amastigote media containing 500 U/mL penicillin/streptomycin (Invitrogen) and 6uL was dispensed to each experimental well using a Multidrop Combi dispenser (Thermo Scientific). 6uL of assay media was dispensed to control columns used as reference for 100% compound response. Following incubation for 72 h at 37C, 5% CO2, 2 uL of resazurin was added to each well at a final concentration of 0.5 mM in phosphate buffered saline (PBS) with IGEPAL (Sigma-Aldrich), 0.05% (v/v).; type: functional, organism-based
[6] = system: Leishmania donovani; test: (§2) GSK_TCAKS: pIC50 Leishmania donovani Imaging: Infected Macrophages. Assay plates (384-well) were prepared by adding 250nL of compound to each well. For single shot assay, the final compound concentration was 5 uM. […] Automated image analysis was performed with a script developed on Acapella High Content Imaging and Analysis Software (PerkinElmer). Output: Percent of infected macrophage cells were reported for each well.; type: functional, organism-based, Homo sapiens; details: THP-1
[7] = system: Leishmania donovani; test: as §2, with “Amastigotes/Macrophages.” for “Infected Macrophages.”, “Average number” for “Percent”, “amastigotes per” for “infected”, “cell” for “cells”; type: functional, organism-based, Homo sapiens; details: THP-1
[8] = system: Leishmania donovani; test: as §2, with “THP-1 Host” for “Infected”, “THP-1 cell count” for “Percent of infected macrophage cells”; type: functional, organism-based, Homo sapiens
[9] = system: Trypanosoma brucei brucei; test: GSK_TCAKS: pIC50 Trypanosoma brucei viability assay using fluorescence intensity. Assay plates (1536-well) were prepared by dispensing 25nL of compound solution per well using an Echo acoustic dispenser (Labcyte).; type: functional, organism-based; details: Lister 427, 2 h
[10] = system: Trypanosoma brucei brucei; test: GSK_TCAKS: pIC50 Trypanosoma brucei viability assay using luminiscence. Assay plates (1536-well) were prepared. T. brucei cultures were harvested and counted in a CASY cell counter. A parasite suspension was prepared at a final concentration of 5 * 10^4 cells/mL in complete HMI9 medium and 6uL was dispensed to all wells containing compounds using a Multidrop Combi dispenser. 6uL of HMI9 media with 0.4% DMSO were dispensed to control columns. Plates were incubated for 24 h at 37C, 5% CO2 then tempered for 10 min at room temperature. ATP content was quantified by adding 4 uL of CellTiter-Glo Reagent (Promega) according to the manufacturer's instructions. Luminescence was measured using a ViewLux.; type: functional, organism-based; details: Lister 427, CASY
[11] = GSK_TCAKS: pIC50 HepG2 human cell line viability assay using luminiscence. […] Seeding density was checked to ensure that new mono-layers were not more than 50% confluent at the time of harvesting. Cell suspension was added to 500 mL of the same medium at a final density of 1.2 * 10^5 cells/mL. This cell suspension was dispensed (25 uL, 3000 cells per well) into 384-well clear-bottom plates using a Multidrop Combi dispenser. Prior to addition of the cell suspension, the screening compounds (250 nL) were pre-dispensed into the plates with an Echo liquid handler. Plates were incubated for 48 h at 37C, 5% CO2. After incubation, plates equilibrated at room temperature for 30 min before proceeding to develop the luminescent signal. The signal developer, CellTiter-Glo Reagent, was allowed to equilibrate at room temperature for 30 min and added to the plates (25uL per well) using a Multidrop Combi dispenser. Plates were left for 10 min at room temperature for stabilization and then read using a ViewLux.; type: toxicity, cell-based
[12] = system: NIH3T3; test: GSK_TCAKS: pIC50 NIH 3T3 cell line viability assay using luminiscence. Tissue culture surface treated assay plates (1536-well) were used. […] The 100% cells survival control was determined exposing the host-cells to a 0.5% DMSO concentration, whereas the 100% toxicity control was achieved by seeding the cells in presence of Amphotericin B at 50uM. Plates were incubated for four days at 37C, 5% CO2. The assay readout was developed by addition of 5uL of CellTiter-Glo Reagent following the manufacturer's instructions. Luminiscence was measured using a ViewLux.; type: functional, cell-based; details: Mus musculus, NIH3T3, 96 h
[13] = target: Sterol 14-alpha demethylase (Trypanosoma cruzi (strain CL Brener), UniProt Q7Z1V1); test: GSK_TCAKS: pIC50 CYP51 from Trypanosoma cruzi.; type: functional
Chain of Sterol 14-alpha demethylase (Q7Z1V1 whole entry): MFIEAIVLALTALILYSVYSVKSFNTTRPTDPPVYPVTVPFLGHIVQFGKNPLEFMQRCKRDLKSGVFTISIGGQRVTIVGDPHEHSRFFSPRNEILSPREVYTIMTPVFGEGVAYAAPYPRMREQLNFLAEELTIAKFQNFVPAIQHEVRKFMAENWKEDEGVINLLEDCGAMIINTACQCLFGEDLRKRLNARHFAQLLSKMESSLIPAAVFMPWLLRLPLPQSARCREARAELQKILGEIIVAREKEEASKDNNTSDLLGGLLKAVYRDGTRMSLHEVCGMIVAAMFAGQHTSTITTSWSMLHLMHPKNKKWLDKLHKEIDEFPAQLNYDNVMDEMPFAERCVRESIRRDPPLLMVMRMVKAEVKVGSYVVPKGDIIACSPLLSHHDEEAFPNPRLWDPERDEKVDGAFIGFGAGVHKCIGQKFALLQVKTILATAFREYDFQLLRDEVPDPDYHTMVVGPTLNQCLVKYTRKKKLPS

| SMILES | IC50 [1] [µM] | IC50 [2] [µM] | IC50 [3] [µM] | IC50 [4] [µM] | IC50 [5] [µM] | IC50 [6] [µM] | IC50 [7] [µM] | IC50 [8] [µM] | IC50 [9] [µM] | IC50 [10] [µM] | IC50 at 48 h [11] [µM] | IC50 [12] [µM] | IC50 [13] [µM] |
| --- | --- | --- | --- | --- | --- | --- | --- | --- | --- | --- | --- | --- | --- |
| N#Cc1nc(C=Cc2ccccc2)oc1NCc1cccnc1 | 0.251 | 0.398 | 0.398 | 15.8 | 25.1 | 39.8 | 31.6 | 31.6 | 15.8 | 31.6 | > 100 | 12.6 | – |
| CCOc1ccc(NC(=O)C=Cc2ccc(CC)o2)cc1 | 2 | 25.1 | 15.8 | > 50.1 | 20 | 50.1 | 25.1 | 20 | 15.8 | – | 79.4 | 31.6 | > 100 |
| CCN(C)Cc1ccc(N2CCC(NS(=O)(=O)c3ccc4c(c3)CCO4)CC2)nc1 | 0.631 | 1.26 | 1 | > 50.1 | > 50.1 | > 50.1 | – | > 50.1 | > 39.8 | 39.8 | > 100 | 12.6 | > 100 |
| Cn1c(CN2CCN(c3ncc(C(F)(F)F)cc3Cl)CC2)nc2ccncc21 | 0.794 | 1 | 1 | > 50.1 | 5.01 | > 50.1 | – | 6.31 | 6.31 | > 39.8 | > 100 | 10 | 0.0794 |
| FC(F)(F)c1cc(C2CCCN(Cc3c[nH]c4ccccc34)C2)nc2ncnn12 (centres undefined) | 1.58 | 10 | 6.31 | > 50.1 | > 50.1 | > 50.1 | > 50.1 | 15.8 | > 39.8 | > 39.8 | > 100 | 20 | – |
| COc1cc(NC(=O)Nc2cccc(CNC(=O)OC3CCCCC3)c2)ccc1-c1cnco1 | 1 | 25.1 | 31.6 | 15.8 | > 50.1 | > 50.1 | 20 | 10 | 0.251 | – | 39.8 | 10 | 25.1 |
| CC(C)Nc1nccc(-c2c(-c3ccc(F)cc3)ncn2C2CCOCC2)n1 | 0.282 | 0.316 | 0.2 | > 50.1 | 25.1 | 25.1 | 15.8 | > 50.1 | 5.01 | – | > 100 | > 50.1 | > 100 |
| CN(C)c1ccc(-c2cc3nccnc3c(OC[C@H]3CCCNC3)n2)cn1 | 1.58 | > 50.1 | 1.58 | 20 | > 50.1 | 20 | 25.1 | 20 | 2 | – | 63.1 | 15.8 | – |
| Fc1ccccc1N1C[C@H]2CCN(c3cccnc3)C[C@H]2C1 | 0.2 | 0.2 | 0.2 | > 50.1 | 12.6 | > 50.1 | – | > 50.1 | 31.6 | > 39.8 | > 100 | 12.6 | 0.0631 |
| CC(Cn1ccnc1)NC(=O)C=Cc1ccc(Cl)cc1 (centres undefined) | 0.398 | 1 | 0.631 | > 50.1 | > 50.1 | > 50.1 | > 50.1 | > 50.1 | > 39.8 | – | > 100 | > 50.1 | 0.158 |
| c1cncc(CN(Cc2ccco2)Cc2c[nH]nc2-c2cccs2)c1 | 0.02 | 0.0501 | 0.0398 | > 50.1 | 31.6 | > 50.1 | 1.26 | 20 | 25.1 | – | > 100 | 31.6 | 0.0794 |
| Cn1cncc1CN1CCC2(CC1)COC(Cc1ccccc1)C2 (centres undefined) | 0.316 | 0.501 | 0.316 | > 50.1 | 12.6 | > 50.1 | – | > 50.1 | > 39.8 | > 39.8 | > 100 | 25.1 | 1 |
| CC(C)Oc1ccc(C(=O)Nc2ccc(N3CCOCC3)c(Cl)c2)cc1 | 1.58 | 1.26 | 1.26 | > 50.1 | > 50.1 | > 50.1 | 3.16 | > 50.1 | 12.6 | – | 31.6 | 10 | > 100 |
| CCCCNc1nccc(-c2c(-c3ccc(F)cc3)nn3c(N4CCOCC4)cccc23)n1 | 0.398 | 3.16 | 1 | > 50.1 | > 50.1 | 6.31 | > 50.1 | 12.6 | 10 | – | > 100 | 10 | > 100 |
| CN(C)CCOc1ccc(N2CCN(S(=O)(=O)c3ccc(Cl)cc3)CC2)cc1 | 0.631 | 0.631 | 0.501 | > 50.1 | 39.8 | 31.6 | 31.6 | > 50.1 | 20 | 25.1 | 50.1 | 15.8 | – |
| O=C(NCC1CCCCC1)c1cc(=O)c2ccccc2o1 | 0.447 | 0.631 | 0.501 | 31.6 | 5.01 | 15.8 | 6.31 | > 50.1 | 1 | 1.26 | 25.1 | 31.6 | > 100 |
| Nc1ncnc2c1ncn2[C@@H]1O[C@H](CO)C[C@H]1O [CORDYCEPIN] | 1.12 | 2 | 1.26 | – | > 50.1 | > 50.1 | > 50.1 | > 50.1 | 0.0126 | 0.01 | > 100 | > 50.1 | > 100 |
